Tests used:
[1] = Aqueous solubility assessment of salt screen solids (visual); conditions: Ca. 5 mg in up to 4000 μL water (1.25 mg/ml), shaken overnight at 50° C.; for Solubility assessment (dissolution in deionized water), salt From Ethanol: salt prepared from ethanol; for Solubility assessment (dissolution in deionized water), salt from DIPE: salt prepared from DIPE; for Solubility assessment (dissolution in deionized water), salt from MIBK: salt prepared from MIBK
Protocol: Aqueous solubility assessment was performed using Ca. […] These samples were added to aliquots of deionized water up to a maximum of 4000 μL with the samples being shaken between additions to encourage dissolution prior to a visual inspection.

[2] = Solubility screen of the free acid in various solvents (incremental solvent addition, visual); assay type: physicochemical; conditions: Ca. 10 mg free acid
Source text: The free base (or zwitterionic) Compound 1 can be dissolved in unbuffered water, a range of organic solvents, mixtures of organic solvents and mixtures of solvents with unbuffered water. The solvents assessed were 1,1-dimethoxyethane, acetonitrile, ethanol, 1,2-dichloroethane, benzonitrile, ethyl acetate, 1,4-dioxane, anisole, heptane, 2-butanol, cumene, hexane, 2-propanol, cyclohexane, isopropyl acetate, 4-methyl-pentan-2-one, dichloromethane, methanol, acetone, diisopropyl ether (DIPE), isobutyl acetate, tetralin, toluene, methylethyl ketone, N-methylpyrrolidone, tert-butylmethyl ether, nitromethane, pyridine, tetrahydrofuran.
Ca. 10 mg of the free acid of Compound 1 was weighed into 2 mL HPLC vials prior to the addition of solvent in 100-250 μL increments up to a maximum of 1750 μL. After each addition of solvent the samples were briefly shaken to encourage dissolution and visually inspected for signs of any remaining solid. Once the maximum volume of solvent had been added, 1.1 eq of 1M NaOH(aq) solution was also added, to give an indication as to which of the solvents would yield a suitable salt form. The samples were visually inspected prior to maturation for 2 days, after which all were inspected again. All the samples were then left to evaporate at RT to generate solid material.

[3] = FaSSIF/FeSSIF solubility; assay type: physicochemical; conditions: thermodynamic from solid, shaken 24 h at 37° C.
Protocol: Ca. 25 mg of each of the salts were weighed into a 2 mL HPLC vial prior to the addition of 1 mL of Fasting State Simulated Intenstinal Fluid (FaSSIS) solution. […] The experiment was also repeated using Fed State Simulated Intestinal Fluid (FeSSIF) solution.

[4] = Aqueous solubility, 24 h shake, gravimetric; assay type: physicochemical; conditions: thermodynamic from solid, deionized water
Protocol: Ca. 50 mg of each of the salts were weighed into a 2 mL HPLC vial prior to the addition of 1 mL of deionized water. […] The experiment was also repeated at 50° C.

[5] = pH1 stability; assay type: physicochemical; conditions: pH 1 buffer, 4 h at 37° C.; for Chemical purity post stability (pH 1 for 4 h): HPLC; for 1H NMR post stability (pH 1 for 4 h): cell continues: salt form is no longer present
Protocol: Ca. 25 mg of each of the salts were weighed into a 2 mL HPLC vial prior to the addition of 1 mL of pH 1 buffer. The samples were then shaken for 4 h at 37° C. before being filtered into SPE cartridges and dried overnight.

[6] = Stability at 40° C./75% RH; assay type: physicochemical; conditions: for Chemical purity post stability (40° C./75% RH): HPLC
[7] = Dynamic vapor sorption (DVS); assay type: physicochemical; conditions: for XRPD post DVS: after double cycle 0-90% RH
Protocol: SMS DVS Intrinsic dynamic vapour sorption instrument using DVS-Intrinsic control software v1.0.6.0. Analysis of the data was performed using the DVS analysis suite v7.0.13.1 macro program embedded in Microsoft Excel. Analysis was performed as a wt % change from 0-90% RH with isothermal plots also being examined.
Ca. 10-15 mg of sample was weighed into a stainless steel DVS basket before submitting for analysis. The samples were analysed over the range of 0-90% RH with a maximum time of 6 hours per humidity stage. Each sample was exposed to a double cycle. XRPD analysis of all samples was performed post-DVS.

[8] = pH of saturated solution; assay type: physicochemical; conditions: saturated solution in deionized water, room temperature
Protocol: A saturated solution of each of the salts was prepared in 5 mL of deionized water at room temperature prior to analysis.

salt of 4-(2-((4-bromophenyl)thio)acetamido)-1-phenethyl-1H-pyrazole-3-carboxylic acid and calcium acetate
Solubility assessment (dissolution in deionized water), salt From Ethanol [1]: No dissolution

O=C(CSc1ccc(Br)cc1)Nc1cn(CCc2ccccc2)nc1C(=O)O [Compound 1, 4-(2-((4-bromophenyl)thio)acetamido)-1-phenethyl-1H-pyrazole-3-carboxylic acid]
Solvent Addition ([2]; solvent 1,1-Dimethoxyethane, increments up to maximum 1750 μL): 1750 µL
Solvent Addition ([2]; solvent 1,2-Dichloroethane, maximum 1750 μL): 1750 µL
Solvent Addition ([2]; solvent 1,4-Dioxane, maximum 1750 μL): 750 µL
Solvent Addition ([2]; solvent 2-Butanol, maximum 1750 μL): 1750 µL
Solvent Addition ([2]; solvent 2-Propanol, maximum 1750 μL): 1750 µL
Solvent Addition ([2]; solvent 4-methyl-pentan-2-one, maximum 1750 μL): 1750 µL
Solvent Addition ([2]; solvent Acetone, maximum 1750 μL): 1750 µL
Solvent Addition ([2]; solvent Acetonitrile, maximum 1750 μL): 1750 µL
Solvent Addition ([2]; solvent Anisole, maximum 1750 μL): 1750 µL
Solvent Addition ([2]; solvent Benzonitrile, maximum 1750 μL): 1750 µL
Solvent Addition ([2]; solvent Cumene, maximum 1750 μL): 1750 µL
Solvent Addition ([2]; solvent Cyclohexane, maximum 1750 μL): 1750 µL
Solvent Addition ([2]; solvent Dichloromethane, maximum 1750 μL): 1750 µL
Solvent Addition ([2]; solvent Diisopropyl ether, maximum 1750 μL): 1750 µL
Solvent Addition ([2]; solvent Ethanol, maximum 1750 μL): 1750 µL
Solvent Addition ([2]; solvent Ethyl acetate, maximum 1750 μL): 1750 µL
Solvent Addition ([2]; solvent Heptane, maximum 1750 μL): 1750 µL
Solvent Addition ([2]; solvent Hexane, maximum 1750 μL): 1750 µL
Solvent Addition ([2]; solvent Isobutyl Acetate, maximum 1750 μL): 1750 µL
Solvent Addition ([2]; solvent Isopropyl acetate, maximum 1750 μL): 1750 µL
Solvent Addition ([2]; solvent Methanol, maximum 1750 μL): 1750 µL
Solvent Addition ([2]; solvent Methylethyl ketone, maximum 1750 μL): 1750 µL
Solvent Addition ([2]; solvent N-Methylpyrrolidone, maximum 1750 μL): 250 µL
Solvent Addition ([2]; solvent Nitromethane, maximum 1750 μL): 1750 µL
Solvent Addition ([2]; solvent Pyridine, maximum 1750 μL): 1750 µL
Solvent Addition ([2]; solvent Tetrahydrofuran, maximum 1750 μL): 750 µL
Solvent Addition ([2]; solvent Tetralin, maximum 1750 μL): 1750 µL
Solvent Addition ([2]; solvent Toluene, maximum 1750 μL): 1750 µL
Solvent Addition ([2]; solvent Water, maximum 1750 μL): 1750 µL
Solvent Addition ([2]; solvent tert-Butylmethyl ether, maximum 1750 μL): 1750 µL

CNC[C@H](O)[C@@H](O)[C@H](O)[C@H](O)CO.O=C(CSc1ccc(Br)cc1)Nc1cn(CCc2ccccc2)nc1C(=O)O [N-Methylglucamine, salt of 4-(2-((4-bromophenyl)thio)acetamido)-1-phenethyl-1H-pyrazole-3-carboxylic acid and N-methylglucamine]
Solubility assessment (dissolution in deionized water), salt From Ethanol [1]: Partial

CCNC[C@H](O)[C@@H](O)[C@H](O)[C@H](O)CO.O=C(CSc1ccc(Br)cc1)Nc1cn(CCc2ccccc2)nc1C(=O)O [N-Ethylglucamine, salt of 4-(2-((4-bromophenyl)thio)acetamido)-1-phenethyl-1H-pyrazole-3-carboxylic acid and N-ethylglucamine]
Solubility assessment (dissolution in deionized water), salt from DIPE [1]: Partial
Solubility assessment (dissolution in deionized water), salt From Ethanol [1]: Partial

salt of 4-(2-((4-bromophenyl)thio)acetamido)-1-phenethyl-1H-pyrazole-3-carboxylic acid and tromethamine
Solubility assessment (dissolution in deionized water), salt From Ethanol [1]: No dissolution

O=C(CSc1ccc(Br)cc1)Nc1cn(CCc2ccccc2)nc1C(=O)[O-].[K+] [potassium salt, 4-(2-((4-bromophenyl)thio)acetamido)-1-phenethyl-1H-pyrazole-3-carboxylic acid potassium salt]
solubility at 24 h ([3]; FaSSIF, read-out: FaSSIF solubility @ 37° C.): 1500 µg/mL
solubility at 24 h ([3]; FeSSIF, read-out: FeSSIF solubility @ 37° C.): 1600 µg/mL
solubility at 24 h ([4]; shaken 24 h at 25° C., read-out: Aqueous solubility @ 25° C.): 6600 µg/mL
solubility at 24 h ([4]; shaken 24 h at 50° C.): 16200 µg/mL
Observations post stability (pH 1 for 4 h) [5]: No visual change
XRPD post stability (pH 1 for 4 h) [5]: Partially crystalline: change in crystalline form compared to the
Chemical purity post stability (pH 1 for 4 h) [5]: >99.9% (by peak area)
1H NMR post stability (pH 1 for 4 h) [5]: Reduction in chemical shifts, indicating that salt form is no
Solubility assessment (dissolution in deionized water), salt from DIPE [1]: Complete
Solubility assessment (dissolution in deionized water), salt from MIBK [1]: Partial
Solubility assessment (dissolution in deionized water), salt From Ethanol [1]: Complete
Observation post stability (40° C./75% RH) [6]: No visible change
XRPD post stability (40° C./75% RH) [6]: Partially crystalline-no change in form
Chemical purity post stability (40° C./75% RH) [6]: >99.9% (by peak area)
DVS mass increase between 0-90% RH, first cycle ([7]; 0-90% RH): Ca. 5.7% mass increase between 0-90% RH on the first cycle
XRPD post DVS [7]: Partially crystalline-pattern is different from free acid indicating
pH of rm temp sat'd sol'n [8]: 9.21

salt of 4-(2-((4-bromophenyl)thio)acetamido)-1-phenethyl-1H-pyrazole-3-carboxylic acid and magnesium acetate
Solubility assessment (dissolution in deionized water), salt From Ethanol [1]: No dissolution

O=C(CSc1ccc(Br)cc1)Nc1cn(CCc2ccccc2)nc1C(=O)O.c1ccc(CNCCNCc2ccccc2)cc1 [N,N′-Dibenzylethylenediamine, salt of 4-(2-((4-bromophenyl)thio)acetamido)-1-phenethyl-1H-pyrazole-3-carboxylic acid and N,N′-dibenzylethylenediamine]
Solubility assessment (dissolution in deionized water), salt from MIBK [1]: No dissolution

salt of 4-(2-((4-bromophenyl)thio)acetamido)-1-phenethyl-1H-pyrazole-3-carboxylic acid and N-(phenylmethyl)benzeneethaneamine [N-(Phenylmethyl) benzeneethaneamine]
Solubility assessment (dissolution in deionized water), salt from DIPE [1]: No dissolution
Solubility assessment (dissolution in deionized water), salt From Ethanol [1]: No dissolution

salt of 4-(2-((4-bromophenyl)thio)acetamido)-1-phenethyl-1H-pyrazole-3-carboxylic acid and diethylamine [diethylamine salt]
Observations post stability (pH 1 for 4 h) [5]: No visual change
Chemical purity post stability (pH 1 for 4 h) [5]: >99.9% (by peak area)
1H NMR post stability (pH 1 for 4 h) [5]: Reduction in chemical shifts, indicating that salt form is no
Observation post stability (40° C./75% RH) [6]: No visible change
XRPD post stability (40° C./75% RH) [6]: Crystalline-no change in form
Chemical purity post stability (40° C./75% RH) [6]: >99.9% (by peak area)
DVS mass increase between 0-90% RH, first cycle ([7]; 0-90% RH): Ca. 0.1% mass increase between 0-90% RH on the first cycle
DVS mass increase between 0-90% RH, second cycle ([7]; 0-90% RH, second cycle): Ca. 0.1% mass increase between 0-90% RH on the first cycle
XRPD post DVS [7]: Crystalline-no change in form

— US11242321B2, “Salt forms of organic compound” (KAINOS MEDICINE INC., priority 2018, dated 2022)
